# How the values were obtained:
# [1] = target: T1, RIP1 (Homo sapiens, UniProt Q13546); experiment: Fluorescent polarization based binding assay (FP Binding Assay); conditions: His-GST-RipK1(1-375) 10 nM, fluorescent labeled ligand 5 nM
# T1 construct: His-GST-RipK1(1-375) was purified from a Baculovirus expression system; His (N); GST (N); made in house
# T1 sequence (Q13546 1-375): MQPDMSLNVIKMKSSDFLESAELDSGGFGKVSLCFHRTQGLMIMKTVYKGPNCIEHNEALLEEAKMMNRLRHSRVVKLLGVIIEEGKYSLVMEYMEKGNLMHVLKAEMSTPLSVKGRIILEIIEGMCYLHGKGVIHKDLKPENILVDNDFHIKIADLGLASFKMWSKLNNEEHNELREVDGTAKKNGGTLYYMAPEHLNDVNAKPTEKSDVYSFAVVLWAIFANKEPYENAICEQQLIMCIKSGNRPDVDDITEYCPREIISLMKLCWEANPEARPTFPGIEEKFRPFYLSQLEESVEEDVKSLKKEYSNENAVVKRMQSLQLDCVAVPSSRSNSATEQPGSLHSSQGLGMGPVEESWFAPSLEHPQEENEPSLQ
# [2] = test system: H-22; experiment: Syngeneic subcutaneous tumor model H-22; format: in vivo, mouse; conditions: H-22 model; Example 6 40 mg/kg p.o. BID up to 21 days
# Experimental: The efficacy of RIP1 inhibition was tested in 12 different murine (6-8 week old) syngeneic subcutaneous tumor models. RIP1 inhibition was tested as a single agent in all models, with anti-PD1 combination arms added to the five of the final models.
# T and C are the mean tumor volume of the treated and control groups, respectively, on a given day. • 2) Tumor and plasma collection at study end for further investigation.
# Cell Culture: The 12 syngeneic cell lines were maintained in vitro with different medium (indicated in Table 3) at 37° C. in an atmosphere of 5% CO2 in air. The tumor cells were routinely subcultured twice weekly. The cells in an exponential growth phase were harvested and counted for tumor inoculation.
# Each mouse was inoculated subcutaneously with tumor cells in 0.1 mL of PBS for tumor development. The treatments were started when the mean tumor size reached approximately 80-120 mm^3 (around 100 mm^3).
FP Binding Assay (pIC50) [1],Compound,Mean tumor growth inhibition (TGI) at model termination [2] [%]
7.4,"CN1C(=O)[C@@H](NC(=O)c2n[nH]c(Cc3ccccc3F)n2)CNc2ccccc21 [Example 3, (S)-5-(2-Fluorobenzyl)-N-(1-methyl-2-oxo-2,3,4,5-tetrahydro-1H-benzo[b][1,4]diazepin-3-yl)-1H-1,2,4-triazole-3-carboxamide]",–
–,"N#Cc1cc(N2CCC(C(=O)N3N=CC[C@H]3c3cc(F)cc(F)c3)CC2)ncn1 [Example 6, (S)-6-(4-(5-(3,5-difluorophenyl)-4,5-dihydro-1H-pyrazole-1-carbonyl)piperidin-1-yl)pyrimidine-4-carbonitrile]",19
8.0,"O=C(N[C@H]1CNc2cccc(F)c2NC1=O)c1nnc(Cc2ccccc2F)[nH]1 [Example 1, (S)—N-(9-Fluoro-2-oxo-2,3,4,5-tetrahydro-1H-benzo[b][1,4]diazepin-3-yl)-5-(2-fluorobenzyl)-4H-1,2,4-triazole-3-carboxamide]",–
